Measured values reported in PubChem BioAssay AID1159563 (GlaxoSmithKline (GSK), 2015).
Active and inactive are the calls of the source. The rule behind the calls is not given here.

tested on: HepG2 cytotoxicity; assay: human hepatoma cell viability loss – cytotoxicity control (AID 1159563)

| Structure (SMILES) | IC50 |
| --- | --- |
| COc1ccc(-c2nc3ccncc3c(=O)n2CCOc2ccccc2)cc1 | > 100 µM (inactive) |
| CCNc1cc(-c2ccccn2)nc(Nc2ccccc2)n1 | 25 µM |
| Cc1nc2c(-c3nc(-c4ccc(N)cc4)n[nH]3)cccn2c1C | 16 µM |
| O=c1oc2ccccc2n1C1CCN(Cc2ccccc2-c2cccnc2)CC1 | > 100 µM (inactive) |
| COc1ccc2nccc([C@H](O)CN3CC[C@H](NC(=O)c4ccc(Br)cc4)[C@@H](O)C3)c2n1 | > 100 µM (inactive) |
| CS(=O)(=O)c1ccc(Nc2nccc(-c3cnn4ncccc34)n2)cc1 | 16 µM |
| CNC(=O)C1Cc2ccccc2N1C(=O)Cc1ccc(F)cc1 (centres undefined) | > 100 µM (inactive) |
| CC(c1ccccn1)N(C)Cc1nc2ccccc2n1C(C)C (centres undefined) | 25 µM |
| Cc1cc(Br)sc1CNCCCNc1cc(=O)c2ccccc2[nH]1 | 40 µM |
| CN1C(=O)c2ccccc2Sc2ccc(NC(=O)NCc3ccco3)cc21 | > 100 µM (inactive) |
| Nc1cc(-c2ccc3ncnc(N4CCOCC4)c3c2)cnc1N | > 100 µM (inactive) |
| N#Cc1cccc(Cc2cc(Nc3cc(C4CC4)[nH]n3)nc(N3CC[C@H]3C(N)=O)n2)c1 | > 100 µM (inactive) |
| CCc1cccc(CC)c1-n1c(SCC(=O)NC(=O)NCc2ccco2)nnc1-c1cccnc1 | > 100 µM (inactive) |
| O=[N+]([O-])c1ccc(-c2nnn(-c3cccnc3)n2)o1 | > 100 µM (inactive) |
| COc1ccc(-c2cc(C)no2)cc1S(=O)(=O)Nc1ccc(C)c(C)c1 | > 100 µM (inactive) |
| COCCn1cnc2cc(NC(=O)C3CCCCC3)cc(C(=O)N3CCc4sccc4C3)c21 | > 100 µM (inactive) |
| N#Cc1ccc(S(=O)(=O)N2CCN(Cc3cccc(-c4ccncc4)c3)CC2)cc1 | > 100 µM (inactive) |
| C[C@@H](Oc1cc(-n2cnc3ccc(O[C@H]4CCNC4)cc32)sc1C(N)=O)c1ccccc1Cl | 16 µM |
| CCN(Cc1nc2ccc(C(=O)N3CCN(c4ncccn4)CC3)cc2[nH]1)C1CCCc2cccnc21 (centres undefined) | > 100 µM (inactive) |
| CCCn1c(NC(=O)CCn2cc(Br)cn2)nc2ccccc21 | > 100 µM (inactive) |
| COc1ccc([N+](=O)[O-])cc1NC(=O)c1cc(Cl)ccc1O | 10 µM |
| COc1ccc(-c2cnc(NC(=O)c3cc(-c4ccccn4)n[nH]3)n2C)cc1 | > 100 µM (inactive) |
| Nc1nc(-c2ccccc2)cc(-c2nc3ncccc3[nH]2)n1 | 40 µM |
| CC(Cn1ccnc1)NC(=O)C1CC1c1cccc(Cl)c1Cl (centres undefined) | > 100 µM (inactive) |
| Cc1nc2c(-c3n[nH]c(-c4ccccc4N)n3)cccn2c1C | 16 µM |

| Structure (SMILES) | IC50 |
| --- | --- |
| COc1ccc(C2CC(c3ccc(NS(C)(=O)=O)cc3)=NN2C(=O)c2cccs2)cc1OC (centres undefined) | > 100 µM (inactive) |
| Clc1cc(Br)ccc1OCCCCn1ccnc1 | 50 µM |
| Nc1nc(-c2ccccn2)nc(-n2nc(-c3cccc(C(F)(F)F)c3)cc2N)n1 | 20 µM |
| O=C(NCCc1csc(-c2ccc(F)cc2)n1)c1ccco1 | > 100 µM (inactive) |
| O=C1NCCn2ccc(Nc3nc(NC4CCC(O)CC4)ncc3Cl)c21 (centres undefined) | > 100 µM (inactive) |
| Cn1c(CN2CCN(c3ncc(C(F)(F)F)cc3Cl)CC2)nc2ccncc21 | > 100 µM (inactive) |
| COc1cc(C2SCC(=O)Nc3c2c(C)nn3-c2nc3ccccc3s2)cc(OC)c1O (centres undefined) | > 100 µM (inactive) |
| CC(C)CC(=O)NC(c1cccs1)c1ccc2cccnc2c1O (centres undefined) | > 100 µM (inactive) |
| COc1ccc(C(=O)Nc2c(C)nn(COc3cccc(C(F)(F)F)c3)c2C)cc1 | > 100 µM (inactive) |
| CS(=O)(=O)N1CCC(Nc2ncc(Br)c(Nc3cccc(F)c3C(N)=O)n2)CC1 | > 100 µM (inactive) |
| COc1ccc(-c2ccc3nnc(-c4ccc(O)c(OC)c4)n3c2)cn1 | > 100 µM (inactive) |
| CCN(CC)c1ccc(S(=O)(=O)N(CC)CC)c2nonc12 | > 100 µM (inactive) |
| CC(C)n1c(-c2nonc2N)nc2cccc(OCCN3CCCC3)c21 | > 100 µM (inactive) |
| CC(C)S(=O)(=O)c1ccc(-c2cnc(N)c3cc(-c4ccnc(N)n4)ccc23)cc1 | 16 µM |
| O=C1COC(c2ccccc2)(c2ccccc2)CN1C1CCN(Cc2ccc(-n3ccnc3)cc2)CC1 | 50 µM |
| O=c1cc(CSc2ccc(Cl)cc2)nc(-c2ccccn2)[nH]1 | > 100 µM (inactive) |
| c1cc(-c2ncc(-c3ccn[nH]3)s2)ccn1 | > 100 µM (inactive) |
| CCN(Cc1ccncc1)Cc1ccc(NC(=O)c2cc(-c3ccc(F)cc3)n[nH]2)cc1 | > 100 µM (inactive) |
| COc1ncc(-c2ccc3nccc(-c4ccncc4)c3c2)cc1NS(C)(=O)=O | > 100 µM (inactive) |
| CC(=O)Nc1nc(-c2cc(C)ccc2C)c(C)s1 | > 100 µM (inactive) |
| Cc1[nH]n2c(=O)c3c(nc2c1-c1ccc(Cl)cc1)CCCC3 | > 100 µM (inactive) |
| CC1CCCN(S(=O)(=O)c2ccc(C(=O)Nc3nc(-c4ccccn4)cs3)cc2)C1 (centres undefined) | 40 µM |
| CCN(CC)S(=O)(=O)c1ccc(OC)c(NC(=O)c2ccc([N+](=O)[O-])s2)c1 | > 100 µM (inactive) |
| O=C(COc1nn(-c2ccccc2)c2ncccc12)NCc1ccccc1 | > 100 µM (inactive) |
| CC1CN(Cc2ccc(C#N)cc2)CCN1c1ccc(NC(=O)c2ccccc2F)cc1 (centres undefined) | > 100 µM (inactive) |

| Structure (SMILES) | IC50 |
| --- | --- |
| CC(C)Oc1ccc(C(=O)Nc2ccc(N3CCOCC3)c(Cl)c2)cc1 | 32 µM |
| CC(CNS(=O)(=O)c1ccc(OC(F)F)cc1)c1ccc(NC(=O)c2ccncc2)cc1 (centres undefined) | 100 µM |
| c1ccc(CNc2cccc3ccncc23)cc1 | > 100 µM (inactive) |
| NC(=O)c1cc(NC(=O)c2ccccc2COc2ccccc2)ccc1Cl | > 100 µM (inactive) |
| COc1ccc2nccc(NC(=O)C3(OC)CCN(CC(O)c4ccc5c(c4)OCCO5)CC3)c2n1 (centres undefined) | 40 µM |
| CC(C)(C)C(O)(CCc1ccc(Cl)cc1)Cn1cncn1 (centres undefined) | > 100 µM (inactive) |
| CCc1cccc(-n2nc(OCC(=O)NC3CCCC3)c3cccnc32)c1 | > 100 µM (inactive) |
| COc1ccc(C(C)(C)C)cc1S(=O)(=O)n1ccnc1 | > 100 µM (inactive) |
| O=c1ccn(-c2ccc([N+](=O)[O-])cc2Cl)c2ccc(F)cc12 | > 100 µM (inactive) |
| COc1cccc(C(=O)[C@H]2C[C@@H]2CN(Cc2ccccn2)Cc2ccccn2)c1 | > 100 µM (inactive) |
| O=C(NCc1nnc2n1CCCCC2)c1csc(-c2ccccc2)n1 | > 100 µM (inactive) |
| Cc1ncsc1CNc1cnc(-c2ccc3c(c2)OCCO3)c(-c2cnn(C)c2)c1 | > 100 µM (inactive) |
| N#Cc1ccccc1S(=O)(=O)N1CCN(C(=O)CNC(=O)c2ccc3c(c2)OCO3)CC1 | > 100 µM (inactive) |
| O=C(Cn1cnc2c(-c3ccccc3)csc2c1=O)N1CCCCC1 | > 100 µM (inactive) |
| O=C(NCc1ccncc1)c1ccccc1N1CCCN(C(=O)Cc2ccc(F)c(F)c2)CC1 | > 100 µM (inactive) |
| COc1ccc2ncc(=O)n(CCN3CCOC(CNCc4ccc(C(F)(F)F)cc4F)C3)c2n1 (centres undefined) | > 100 µM (inactive) |
| CS(=O)(=O)c1cccc(CNC(=O)c2cncc(N3CCN(c4ccc(F)cc4)CC3)c2)c1 | > 100 µM (inactive) |
| CN(Cc1nnnn1C1CCN(Cc2ccc(-n3ccnc3)cc2)CC1)c1ccc(F)cc1F | > 100 µM (inactive) |
| O=C(CN1CCN(S(=O)(=O)c2cccc([N+](=O)[O-])c2)CC1)Nc1ccc(Oc2ccccc2)cc1 | > 100 µM (inactive) |
| O=C(Nc1ccccc1)Nc1nc(-c2ccccn2)cs1 | 25 µM |
| CS(=O)(=O)NC1CCC(Oc2cc3cnccc3cc2-c2ccsc2)CC1 (centres undefined) | 63 µM |
| O=C(NC1CCN(C2Cc3ccc(NS(=O)(=O)c4cc(F)cc(F)c4)cc3C2)CC1)C1CC1 (centres undefined) | > 100 µM (inactive) |
| Cc1[nH]n2c(=O)c3c(nc2c1-c1ccc(F)cc1)CCCC3 | > 100 µM (inactive) |
| Cc1ccccc1CNc1cc(C2CC2)nc(-c2nccn2C)n1 | 16 µM |
| COc1ccc(-c2csc(NC(=O)c3ccc([N+](=O)[O-])s3)n2)cc1OC | 10 µM |

| Structure (SMILES) | IC50 |
| --- | --- |
| O=C(Cc1ccccc1)Nc1ccccc1C(=O)Nc1nccs1 | > 100 µM (inactive) |
| OC[C@@H](Nc1nccc(-c2c(-c3ccc(F)cc3)ncn2C2CCNCC2)n1)c1ccccc1 | 100 µM |
| CC(Cn1ccnc1)NC(=O)C=Cc1ccc(Cl)cc1 (centres undefined) | > 100 µM (inactive) |
| CN1CCN(c2nc(-c3ccc(Cl)cc3)c3c(N)n(C)nc3n2)CC1 | 79 µM |
| Cc1cc(NC(=O)CC2CCCCC2)n(-c2nc3c(c(=O)[nH]2)CCC3)n1 | > 100 µM (inactive) |
| c1ccc(-c2nc(NCc3ccco3)c3ccccc3n2)nc1 | > 100 µM (inactive) |
| COc1ccc(C(C)N(C)c2ncc3c(N)nc(N)nc3n2)cc1F (centres undefined) | > 100 µM (inactive) |
| Cc1cc(C)c(C#N)c(SCC(=O)c2ccc3c(c2)OCO3)n1 | > 100 µM (inactive) |
| COc1cc(Nc2nccc(Nc3onc(C)c3C)n2)cc(S(=O)(=O)C2CCOCC2)c1 | 32 µM |
| O=[N+]([O-])c1ccc(C2=CC(c3ccccc3)=NCCN2)cc1 | 50 µM |
| CC(C)N(C(=O)CN1C(=O)C(N)C(=O)N(c2ccccc2)c2ccccc21)c1ccccc1 (centres undefined) | > 100 µM (inactive) |
| CCN(Cc1cccs1)C(=O)CSc1nnc(-c2ccc3c(c2)OCO3)o1 | > 100 µM (inactive) |
| CC1(Oc2cncc(Cl)c2)CCN(Cc2cc3ccccc3[nH]2)C1 (centres undefined) | 32 µM |
| O=C(Nc1nc2cc(Cl)ccc2o1)c1cccc(Cl)c1 | > 100 µM (inactive) |
| O=C1CN(C(=O)c2cccc(Nc3ncc(-c4ccc5c(c4)OCO5)cn3)c2)CCN1 | > 130 µM (inactive) |
| Cc1[nH]n2c(=O)c3c(nc2c1-c1ccc(Br)cc1)CCCC3 | > 100 µM (inactive) |
| CC(C(=O)Nc1ccccc1F)N(C)CC(=O)Nc1cccc2ccccc12 (centres undefined) | > 100 µM (inactive) |
| CC(=O)Nc1ccc(-c2ccnc(Nc3cccc(C#N)c3)n2)cc1 | > 100 µM (inactive) |
| O=C(NC(c1ccc(Cl)cc1)c1cnccn1)C1CCN(C(=O)Nc2cccc(C(F)(F)F)c2)CC1 (centres undefined) | > 100 µM (inactive) |
| NS(=O)(=O)c1ccc(Nc2nccc(-c3cnn4ncccc34)n2)cc1 | > 100 µM (inactive) |
| Cc1cn[nH]c1C1CCCN(Cc2nc3ccccc3n2C)C1 (centres undefined) | 50 µM |
| O=C(NCC1CCCCC1)c1cc(=O)c2ccccc2o1 | 25 µM |
| NS(=O)(=O)c1ccc(CNC(=O)c2ccc([N+](=O)[O-])s2)cc1 | 16 µM |
| CC(=O)NC1(c2ccccc2)CCN(CC(=O)Nc2ccccc2-c2ccccc2)CC1 | > 100 µM (inactive) |
